The values that follow come from publication PMC7581365, “Structural features and development of an assay platform of the parasite target deoxyhypusine synthase of Brugia malayi and Leishmania major” (PLoS Neglected Tropical Diseases, 2020).

The target of data set [1] is T1, Deoxyhypusine synthase (BmDHS) (Brugia malayi, UniProt A0A0J9XTC4).
T1 construct: gene bma-dhps-1; full-length, recombinant BmDHS (residues 1–366)
T1 sequence (A0A0J9XTC4 1-366): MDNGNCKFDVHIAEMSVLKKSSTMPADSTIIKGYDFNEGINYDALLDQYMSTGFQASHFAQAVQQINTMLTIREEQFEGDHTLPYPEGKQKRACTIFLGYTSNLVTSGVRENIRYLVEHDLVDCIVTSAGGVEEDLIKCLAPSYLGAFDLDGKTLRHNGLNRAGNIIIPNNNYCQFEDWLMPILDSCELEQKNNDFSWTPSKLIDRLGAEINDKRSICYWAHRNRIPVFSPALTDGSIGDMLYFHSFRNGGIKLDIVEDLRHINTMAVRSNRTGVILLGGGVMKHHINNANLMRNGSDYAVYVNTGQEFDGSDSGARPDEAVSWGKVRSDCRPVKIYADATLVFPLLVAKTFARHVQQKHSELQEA
The data set can be described thus: NADH fluorescence assay of DHS partial reaction with purified recombinant enzyme. In kind it is biochemical.

Data set [2] concerns the molecule itself. Nature of the data set: SEC; analytical gel filtration, Superdex 200 Increase 10/300, 900 ug purified BmDHS; 20 mM HEPES pH 7.5, 300 mM NaCl, 5% glycerol, 0.5 mM TCEP; calibrated with protein standards (Kav against log mass). (In gel filtration, larger molecules generally elute earlier.)

One may read the IC50 as the point on the concentration scale where inhibition reaches its midpoint. With `N=C(N)NCCCCCCCN` [GC7], the IC50 in data set [1] was 28 nM.

B1: Brugia malayi deoxyhypusine synthase (BmDHS), full-length recombinant protein (enzyme)
chain: SMDNGNCKFDVHIAEMSVLKKSSTMPADSTIIKGYDFNEGINYDALLDQYMSTGFQASHFAQAVQQINTMLTIREEQFEGDHTLPYPEGKQKRACTIFLGYTSNLVTSGVRENIRYLVEHDLVDCIVTSAGGVEEDLIKCLAPSYLGAFDLDGKTLRHNGLNRAGNIIIPNNNYCQFEDWLMPILDSCELEQKNNDFSWTPSKLIDRLGAEINDKRSICYWAHRNRIPVFSPALTDGSIGDMLYFHSFRNGGIKLDIVEDLRHINTMAVRSNRTGVILLGGGVMKHHINNANLMRNGSDYAVYVNTGQEFDGSDSGARPDEAVSWGKVRSDCRPVKIYADATLVFPLLVAKTFARHVQQKHSELQEA
notes: additional N-terminal serine residue introduced by the cloning strategy and left over after TEV cleavage of the poly-His tag; Deoxyhypusine synthase of Brugia malayi, encoded by bma-DHPS-1, full-length enzyme, residues 1-366; Expressed from pNIC28-Bsa4; Molecular weight by LC-MS 41,083.5 Da; also called B. malayi (Bm)DHS; filarial worm DHS; source: E. coli BL21(DE3)-R3-pRARE2, purified (HisTrap …)
By stoichiometry N is commonly meant the number of molecules, sites or subunits per partner or assembly. Regarding B1, the “stoichiometry N” value in data set [2] was determined as 4.
